Paper PMC12454603 (Archives of Toxicology, 2025)
Values joined by “and” are separate entries in the source; they are usually repeats but may differ in a detail not shown here. Equal values may be shown once. “Also recorded” adds a separate entry of the source. Read-outs that look alike come from different tables or passages of the source.

Experiments:
[1] = system: ES-D3 cells (differentiation into contracting cardiomyocytes); test: ES-D3 cell differentiation assay of the mouse embryonic stem cell test (mEST); assay type: cell-based; settings: for IC50: Mus musculus, Cardiomyocyte, 240 h, read-out: IC50 for inhibition of differentiation of ES-D3 cells into beating cardiomyocytes; for Outcome in the differentiation assay of the mEST: parent PAH tested without bioactivation
Experimental: The developmental toxicity of the test compounds was assessed by the inhibitory effect on the differentiation of cells of the ES-D3 cell line into contracting cardiomyocytes. The assay was performed essentially as previously described (Kamelia et al. [2020]). The cells were cultured on the lid of a 96-well plate in 45 hanging drops (volume 20 µL/drop) at a concentration of 37,500 cells/ml. The 96 wells were filled with 250 µL PBS to maintain the humidity. Sterile Eppendorf lids were placed at the corners of the 96-well plate to prevent the hanging drops from contacting the 96-well plate. The plates were sealed with micropore tape and incubated at 37 °C with 5% CO2 in a humidified atmosphere for 72 h. After 72 h, 5 ml exposure medium was prepared for each concentration of each test compound with 0.25% DMSO in a 60 × 15 mm petri dish. The formed embryonic bodies (EBs) in the hanging drops on the lid of the 96-well plate were washed off with exposure medium and collected in the petri dish. The Petri dish was subsequently incubated at 37 °C with 5% CO2 in a humidified atmosphere for 48 h. After 48 h, the EBs were transferred to a 24-well plate filled with 1 ml exposure medium per well. Each well contained 1 EB. The 24-well plates were incubated at 37 °C with 5% CO2 in a humidified atmosphere for 120 h. The number of EBs with contracting cardiomyocytes and the undifferentiated EBs were counted under a microscope. In the solvent (DMSO) control, the presence of more than 21 EBs with contracting cardiomyocytes out of 24 EBs indicates a valid assay. In each experiment, 0.5 µM (0.065 µg/ml) 5-FU was used as a positive control. The result of the differentiation assay is expressed as the fraction of differentiated EBs of the total number of EBs.
(§1) The concentration–response data for the test compounds in the mEST were presented in three curves including curves for 1-day cytotoxicity, 5-day cytotoxicity, and 10-day differentiation assays. The obtained curves were fitted using the inhibition equation log (inhibitor) vs response (three parameters) option using GraphPad Prism software 5.0 (California, USA).

[2] = system: ES-D3 cells; test: ES-D3 cell cytotoxicity (WST-1 viability) assay of the mEST; assay type: cell-based, mouse
Experimental: The viability of the ES-D3 cells following 1-day and 5-day exposure to the test compounds was measured with the WST-1 assay. To this end, 100 µL cell suspension was seeded in the inner 60 wells of 96-well plates at a concentration of 2 × 10^5 cells/ml for 1-day exposure and 10^4 cells/ml for 5-day exposure and incubated at 37 °C with 5% CO2 for 24 h. After 24 h, 100 µL exposure medium with 0.25% DMSO and the required concentration of the test compounds, solvent control, and positive control were added to the cells in triplicate. The plates were incubated at 37 °C with 5% CO2 for 1 day or 5 days until measurement. After the exposure period, 20 µL of the cell proliferation reagent WST-1 were added to each well that contained cells and the cells were incubated for 3 h at 37 °C with 5% CO2. The absorbance of each plate was measured at 440 nm and 620 nm with a SpectraMax iD3 (San Jose, USA).
as §1

[3] = In vivo kinetic study, intravenous 50 mg/kg bw, blood concentrations; settings: rat, 50 mg/kg bw parent PAH
Experimental: Six male Sprague–Dawley rats at the age of 8–9 weeks weighing 286-305g/rat were obtained from Charles River Inc (Beijing, China). The rats were maintained in plastic cages in two groups of three in a temperature-controlled (ranging from 20 °C to 25 °C) and humidity-controlled (ranging from 40–70%) environment on a 12-h light–dark cycle. The animal bedding was corncob and used after autoclaving. The bedding and the cages were changed twice a week. The number of animals was restricted to 3 per dose group and control blood samples were collected before dosing. Feeding and living conditions followed the Chinese Laboratory Animal-Requirement of environment and housing facilities (GB14925-2010). The present rat study was approved by Institutional Animal Care and Use Committee (IACUC-BF202305006).
All animals were fasted 8 h before intravenous injection and resumed feed supply 4 h after dosing.
After administration, blood samples (0.1–0.2 ml blood volume) were taken from the medial canthus venous plexus of the animal and anticoagulated with sodium heparin. Prior to orbital venipuncture and blood collection, the animals were anesthetized by CO2 inhalation (70% CO2 + 30% O2). Blood was sampled at 1 min, 0.5, 1, 2, 4, 8, 12, 24, 32, 48, and 72 h post-dosing. After collection, blood samples were frozen and were stored at −20 °C until analysis. All animals were euthanized with 100% CO2 after the experiment.
Aliquots of 100 µL of blood samples were transferred into centrifuge tubes and 700 µL sodium acetate buffer (0.1M, pH 5.0) and 6 µL β-glucuronidase-arylsulfatase were added. The samples were incubated for 1 h at 37 °C and subsequently extracted twice with 800 µL ethyl acetate saturated with water. The samples were shaken for 30 min and centrifuged 5 min at 2000 g (4 °C). The upper organic phase was transferred to a centrifuge tube and evaporated under a gentle stream of nitrogen at 40 ℃ in a water bath. The residues were re-dissolved with 200 µL ascorbic acid:methanol (1:100). […]

[4] = system: P450 enzymes in rat liver microsomes; test: P450-mediated oxidative metabolism of 8-MBaP/BaP in rat liver microsomes; assay type: in vitro ADME
Experimental: 3-OH-8-MBaP was subsequently modeled to be conjugated by glucuronidation and sulfation in the liver. The kinetic constants for these conjugation reactions were determined in incubation experiments described in Sect. […] The scaling factors from rat liver microsomes and rat liver S9 to the whole liver were 45 mg microsomal protein/g liver and 125 mg S9 protein/g liver, respectively (Houston and Galetin [2008]).

[5] = system: P450 enzymes in rat liver microsomes; set-up: method as in Wang et al. 2022; settings: cited from earlier work
[6] = system: rats; test: PBK modeling-facilitated reverse dosimetry (QIVIVE) of mEST data to predict developmental toxicity; settings: rat
Experimental: The relationship between the in vivo 3-OH-8-MBaP concentration in maternal blood (C in vivo) and the in vitro 3-OH-8-MBaP concentration in the mEST (Cin vitro) was described by the following Eq. (2): 2 Cinvivo∗fub,invivo=Cinvitro∗fub,invitro
The fraction unbound in blood (fub, in vivo) of 3-OH-8-MBaP was calculated as 0.004 (Table 2) based on the methodology mentioned in Sect. “PBK model for 8-MBaP in rats”. The fraction unbound in the mEST (fub, in vitro) was assumed to be half of the fub, in vivo based on the ratio between the protein content in rat blood plasma (7.5%) and the mEST assay medium (15%). The unbound concentration in vitro (Cub, in vitro) inducing the developmental toxicity response in mEST was converted using Eq. (2) to an unbound concentration in blood (Cub,in vivo) that was further converted by the PBK model to a predicted oral dose.

[7] = system: rats; set-up: method as in Wang et al. 2021; settings: rat, oral exposure, previously predicted dose–response curve; ref Wang et al. 2021; cited from earlier work
[8] = system: rats; set-up: method as in Archibong et al. 2002; settings: rat; derived from reported in vivo dose–response data; ref Archibong et al. 2002; cited from earlier work
[9] = set-up: method as in Sun et al. 2002; settings: 8-MBaP assumed to be the same as BaP; ref Sun et al. 2002; cited from earlier work
[10] = scaled to whole liver, liver weight 9.1 g
[11] = scaled with 45 mg microsomal protein/g liver

For Oc1ccc2ccc3c4ccccc4cc4ccc1c2c43 [3-OHBaP, 3-hydroxy-benzo[a]pyrene, reference compound], the IC50 [1] was 1510 nM, the “Cytotoxicity accompanying the inhibition of differentiation” value ([2]; 1-day and 5-day cytotoxicity, ES-D3 cells) was “non-cytotoxic concentrations” and the “Observed in vivo Cmax relative to the model prediction (lower)” value [3] was 2.6 fold.

With Cc1ccc2c(c1)cc1ccc3cccc4ccc2c1c34 [8-MBaP, 8-methyl-benzo[a]pyrene] the IC50 [1] was 830 nM, the “Outcome in the differentiation assay of the mEST” value [1] was “negative” and the IC50 ([2]; Mus musculus, 120 h, 5-day exposure, WST-1, read-out: IC50 for reduction of cell viability on Day 5) was 1740 nM. For the same compound, the “Scaled Vmax, 8-MBaP to 3-OH-8-MBaP” value [4, 10] was 2 µmol/h/liver, the “Scaled Vmax, 8-MBaP to other metabolites” value [4, 10] was 11 µmol/h/liver and the “Scaled Vmax, 8-MBaP to 3-OH-8-MBaP” value [4, 11] was 0.19 µmol/h/g liver. For the same compound, the “Scaled Vmax, 8-MBaP to other metabolites” value [4, 11] was 1.18 µmol/h/g liver, the Km ([5]; read-out: Km, 8-MBaP to 3-OH-8-MBaP, ref Wang et al. 2022, listed as 8MBaP) was 12 µM and the Km ([5]; read-out: Km, 8-MBaP to 3-OH-8-MBaP, ref Wang et al. 2022) was 11.6 µM. For the same compound, the Km ([5]; read-out: Km, 8-MBaP to other metabolites, sum of other metabolites, ref Wang et al. 2022, listed as 8MBaP) was 8 µM, the Km ([5]; read-out: Km, 8-MBaP to other metabolites, sum of other metabolites, ref Wang et al. 2022) was 8.07 µM and the “Vmax, 8-MBaP to 3-OH-8-MBaP” value ([5]; ref Wang et al. 2022) was 0.07 nmol/min/mg microsomal protein and 0.07^a nmol/min/mg microsomal protein. The “Vmax, 8-MBaP to other metabolites” value ([5]; sum of other metabolites, ref Wang et al. 2022) was 0.43 nmol/min/mg microsomal protein and 0.43^a nmol/min/mg microsomal protein.

In the case of c1ccc2c(c1)cc1ccc3cccc4ccc2c1c34 [BaP, benzo[a]pyrene], the “Outcome in the differentiation assay of the mEST” value [1] is reported as “inactive; also recorded: negative”, the “Predicted ED50 of BaP (present study) relative to previously predicted ED50 of BaP (lower)” value ([6]; oral, versus Wang et al. 2021) is reported as 0.9 fold and the “Predicted ED50 of BaP (present study) relative to ED50 from the reported in vivo study (higher)” value ([6]; versus Archibong et al. 2002) is reported as 1.3 fold. The “ED50 for developmental toxicity, model prediction” value [7] was 15.1 mg/kg bw, the “ED50 for developmental toxicity, in vivo toxicity study” value [8] was 10.8 mg/kg bw and the “Permeability coefficient (Papp), apparent intestinal permeability in vivo” value [9] was 0.02 dm/hr.
